According to publication PMC7413254 (Nature Communications, 2020):
Read-outs that look alike come from different tables or passages of the source. Where no end group is shown, it is not given here.

Tests used:
Assay type in all cases: cell-based
PfCRT^Dd2 [1] = molecular target: T1, PfCRT^Dd2 (Plasmodium falciparum, UniProt Q9N623, A220S/I356T/K76T/M74I/N326S/N75E/Q271E/R371I); experiment: [3H]CQ uptake into Xenopus oocytes, cis-inhibition by unlabelled solute; details: read-out: PfCRT-mediated [3H]CQ transport, cis-inhibition (% PfCRTDd2 control)
Summary of the method: (§1)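 PfCRT-expressing and control oocytes: ND96 pH 5.5 → 1.5 h at 27.5 °C → ice-cold ND96 wash → 10% SDS lysis → scintillation count.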

PfCRT^Ecu1110 [2] = molecular target: T2, PfCRT^Ecu1110 (Plasmodium falciparum, UniProt Q9N623, A220S/I356L/K76T/N326D); experiment: as above
Summary of the method: as §1

PfCRT^3D7 = PfCRT^3D7 (Plasmodium falciparum, UniProt Q8IBZ9); experiment: cell-based; details: for [3H]CQ transport, PfCRT3D7 (% PfCRTDd2 control): 45 mM VF-6 injected, 96 mM Na+ injection buffer; for activity at 2000 µM: read-out: [3H]CQ transport, PfCRT3D7, trans-stimulation, solute 2 mM; for [3H]CQ transport, PfCRT3D7 (% PfCRT3D7 control): solute 45 mM injected (estimated intracellular)
Summary of the method: (§2)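 Transport measured in Xenopus oocytes expressing the transporters, 1.5 h at 27.5 °C in ND96 pH 5.5 unless noted. For trans-stimulation, VF-6 injected in 25 nL ND96 at pH 5.0–7.0 or Na^+-free (choline) buffer; intracellular levels based on ~400 nL oocyte volume. Ten oocytes per treatment, ≥4 experiments.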

PfCRT^Dd2 [3] = molecular target: T1, PfCRT^Dd2; experiment: cell-based; details: […]; for activity at 2000 µM: pH 5.5, read-out: [3H]CQ transport, PfCRTDd2, trans-stimulation, solute 2 mM
Summary of the method: as §2

PfCRT^Ecu1110 [4] = molecular target: T2, PfCRT^Ecu1110; experiment: cell-based; details: […]; for activity at 45000 µM: read-out: [3H]CQ transport, PfCRTEcu1110 (% PfCRTDd2 control), 45 mM VF-6 injected, 0 mM Na+ injection buffer; for activity at 2000 µM: read-out: [3H]CQ transport, PfCRTEcu1110, trans-stimulation, solute 2 mM
Summary of the method: as §2

PfNT1 = molecular target: T3, PfNT1 (Plasmodium falciparum, UniProt Q8IDM6); experiment: cell-based; details: for activity at 2000 µM: read-out: [3H]CQ transport, PfNT1, trans-stimulation, solute 2 mM
T3 construct: expressed in transfected cells; host or cells: Xenopus laevis oocytes (stage V-VI), cRNA-injected
Summary of the method: as §2

[5] = read-out: PfCRT-mediated [3H]CQ transport, cis-inhibition (% PfCRTEcu1110 control)
[6] = read-out: [3H]CQ transport (% PfCRTEcu1110 control), cis-inhibition, PfCRTEcu1110, SEM

T3 sequence (Q8IDM6 whole entry): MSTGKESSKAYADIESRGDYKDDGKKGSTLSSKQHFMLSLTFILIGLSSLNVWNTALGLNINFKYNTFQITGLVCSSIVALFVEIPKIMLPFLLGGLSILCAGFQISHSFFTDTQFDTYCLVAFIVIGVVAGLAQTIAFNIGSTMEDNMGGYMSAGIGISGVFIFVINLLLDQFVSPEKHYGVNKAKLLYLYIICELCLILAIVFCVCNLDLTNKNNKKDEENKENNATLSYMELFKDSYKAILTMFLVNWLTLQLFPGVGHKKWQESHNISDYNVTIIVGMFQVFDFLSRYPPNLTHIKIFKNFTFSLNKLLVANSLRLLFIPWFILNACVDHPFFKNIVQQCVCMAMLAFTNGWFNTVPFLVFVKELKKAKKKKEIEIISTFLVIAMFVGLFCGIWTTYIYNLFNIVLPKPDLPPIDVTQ
Chain of PfCRT^3D7 (Q8IBZ9 59-398): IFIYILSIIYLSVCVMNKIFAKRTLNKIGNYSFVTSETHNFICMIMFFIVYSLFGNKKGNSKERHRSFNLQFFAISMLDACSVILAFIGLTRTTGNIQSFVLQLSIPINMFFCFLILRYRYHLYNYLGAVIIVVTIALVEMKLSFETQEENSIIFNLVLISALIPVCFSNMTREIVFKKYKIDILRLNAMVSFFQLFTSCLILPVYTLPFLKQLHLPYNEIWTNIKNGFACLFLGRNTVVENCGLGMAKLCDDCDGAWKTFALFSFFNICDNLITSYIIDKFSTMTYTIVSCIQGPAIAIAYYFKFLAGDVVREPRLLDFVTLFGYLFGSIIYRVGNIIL
T1 sequence (Q9N623 whole entry A220S/I356T/K76T/M74I/N326S/N75E/Q271E/R371I): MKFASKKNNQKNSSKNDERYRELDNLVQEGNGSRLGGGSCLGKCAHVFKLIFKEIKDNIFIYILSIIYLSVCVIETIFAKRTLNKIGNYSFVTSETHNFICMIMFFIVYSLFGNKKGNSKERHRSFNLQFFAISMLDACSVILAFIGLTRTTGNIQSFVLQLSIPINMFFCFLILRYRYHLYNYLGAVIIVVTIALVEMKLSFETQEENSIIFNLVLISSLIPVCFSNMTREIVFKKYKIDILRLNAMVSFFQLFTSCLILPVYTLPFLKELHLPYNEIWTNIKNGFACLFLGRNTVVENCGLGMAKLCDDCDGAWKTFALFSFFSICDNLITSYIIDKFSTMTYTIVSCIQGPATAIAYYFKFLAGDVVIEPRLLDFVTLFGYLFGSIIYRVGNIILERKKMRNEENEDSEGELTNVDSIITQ
T2 sequence (Q9N623 whole entry A220S/I356L/K76T/N326D): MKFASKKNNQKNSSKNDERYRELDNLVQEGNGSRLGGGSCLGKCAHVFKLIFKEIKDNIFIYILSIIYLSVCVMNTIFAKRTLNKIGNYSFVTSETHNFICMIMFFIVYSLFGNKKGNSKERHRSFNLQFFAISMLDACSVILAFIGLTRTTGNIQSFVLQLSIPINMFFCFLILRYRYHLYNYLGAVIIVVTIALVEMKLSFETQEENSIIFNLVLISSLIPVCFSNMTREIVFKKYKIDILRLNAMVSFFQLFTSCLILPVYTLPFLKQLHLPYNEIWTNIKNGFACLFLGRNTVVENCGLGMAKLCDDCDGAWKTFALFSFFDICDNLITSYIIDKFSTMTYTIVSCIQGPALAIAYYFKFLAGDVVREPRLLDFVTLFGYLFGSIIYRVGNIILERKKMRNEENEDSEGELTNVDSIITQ

## VDPVNF [VF-6]
PfCRT^Dd2 [1]
  inhibition at 500 µM: 30 ± 1.1%
  inhibition at 1000 µM: 21 ± 0.8%
  inhibition at 2000 µM: 8.1 ± 0.2%
PfCRT^Ecu1110 [2]; [5]
  inhibition at 500 µM: 50 ± 2.4%
  inhibition at 1000 µM: 39 ± 4.1%
  inhibition at 2000 µM: 26 ± 2.1%
PfCRT^Ecu1110 [2]; [6]
  inhibition at 500 µM: 16 ± 0.3%
  inhibition at 1000 µM: 12 ± 0.2%
  inhibition at 2000 µM: 8 ± 0.04%
PfCRT^3D7; Experiment 1
  [3H]CQ transport, PfCRT3D7 (% PfCRTDd2 control): 22.53 % PfCRTDd2 control
PfCRT^3D7; Experiment 2
  [3H]CQ transport, PfCRT3D7 (% PfCRTDd2 control): 23.78 % PfCRTDd2 control
PfCRT^3D7; Experiment 3
  [3H]CQ transport, PfCRT3D7 (% PfCRTDd2 control): 24.68 % PfCRTDd2 control
PfCRT^3D7; Experiment 4
  [3H]CQ transport, PfCRT3D7 (% PfCRTDd2 control): 25.32 % PfCRTDd2 control
PfCRT^3D7; Experiment 5
  [3H]CQ transport, PfCRT3D7 (% PfCRTDd2 control): 26.32 % PfCRTDd2 control
PfCRT^3D7; […], read-out: PfCRT-mediated [3H]CQ transport, trans-stimulation (% PfCRT3D7 control), [test solute]i = 5 mM (intracellular), PfCRT3D7 oocytes, normalised to oocyte type control
  activity at 5000 µM: 147 ± 5.2%
PfCRT^3D7; […], read-out: PfCRT-mediated [3H]CQ transport, trans-stimulation (% PfCRT3D7 control), [test solute]i = 45 mM (intracellular; 30 mM for some solutes due to solubility), PfCRT3D7 oocytes, normalised to oocyte type control
  activity at 45000 µM: 195 ± 4.6%
PfCRT^3D7; […], read-out: [3H]CQ transport, PfCRT3D7 (% PfCRTDd2 control), 45 mM VF-6 injected, 0 mM Na+ injection buffer, Experiment 1
  activity at 45000 µM: 25.3%
PfCRT^3D7; […], read-out: [3H]CQ transport, PfCRT3D7 (% PfCRTDd2 control), 45 mM VF-6 injected, 0 mM Na+ injection buffer, Experiment 2
  activity at 45000 µM: 26.4%
PfCRT^3D7; […], read-out: [3H]CQ transport, PfCRT3D7 (% PfCRTDd2 control), 45 mM VF-6 injected, 0 mM Na+ injection buffer, Experiment 3
  activity at 45000 µM: 25.3%
PfCRT^3D7; […], read-out: [3H]CQ transport, PfCRT3D7 (% PfCRTDd2 control), 45 mM VF-6 injected, 0 mM Na+ injection buffer, Experiment 4
  activity at 45000 µM: 26.8%
PfCRT^3D7; […], read-out: [3H]CQ transport, PfCRT3D7 (% PfCRTDd2 control), 45 mM VF-6 injected, 0 mM Na+ injection buffer, Experiment 5
  activity at 45000 µM: 27.3%
PfCRT^3D7; […], Experiment 1
  activity at 2000 µM: 22.9%
PfCRT^3D7; […], Experiment 2
  activity at 2000 µM: 19.1%
PfCRT^3D7; […], Experiment 3
  activity at 2000 µM: 21.1%
PfCRT^3D7; […], Experiment 4
  activity at 2000 µM: 21.8%
PfCRT^3D7; trans-stimulation, Experiment 1
  [3H]CQ transport, PfCRT3D7 (% PfCRT3D7 control): 187.43 % PfCRT3D7 control
PfCRT^3D7; trans-stimulation, Experiment 2
  [3H]CQ transport, PfCRT3D7 (% PfCRT3D7 control): 206.32 % PfCRT3D7 control
PfCRT^3D7; trans-stimulation, Experiment 3
  [3H]CQ transport, PfCRT3D7 (% PfCRT3D7 control): 201.32 % PfCRT3D7 control
PfCRT^3D7; trans-stimulation, Experiment 4
  [3H]CQ transport, PfCRT3D7 (% PfCRT3D7 control): 199.25 % PfCRT3D7 control
PfCRT^3D7; trans-stimulation, [test solute]i = 5 mM (injected), PfCRT-mediated component (background subtracted), sheet title says normalised to PfCRTDd2 control, mean ± SEM, SEM
  [3H]CQ transport (% PfCRT3D7 control), trans-stimulation, PfCRT3D7: 1.7 ± 0.02 % PfCRT3D7 control
PfCRT^Dd2 [3]; pH 5.5, read-out: PfCRT-mediated [3H]CQ transport, trans-stimulation (% PfCRTDd2 control), [test solute]i = 5 mM (intracellular), PfCRTDd2 oocytes, normalised to oocyte type control
  activity at 5000 µM: 103 ± 3.1%
PfCRT^Dd2 [3]; pH 5.5, read-out: [3H]CQ transport (% PfCRTDd2 control), trans-stimulation, PfCRTDd2, trans-stimulation, [test solute]i = 5 mM (injected), PfCRT-mediated component (background subtracted), mean ± SEM, SEM
  activity at 5000 µM: 103 ± 3.1%
PfCRT^Dd2 [3]; pH 5.5, read-out: [3H]CQ transport (% PfCRTDd2 control), trans-stimulation, PfCRTDd2, trans-stimulation, [test solute]i = 45 mM (30 mM for some solutes due to solubility), PfCRT-mediated component (background subtracted), mean ± SEM, SEM
  activity at 45000 µM: 112 ± 2.1%
PfCRT^Dd2 [3]; Experiment 1
  activity at 2000 µM: 120%
PfCRT^Dd2 [3]; Experiment 2
  activity at 2000 µM: 119%
PfCRT^Dd2 [3]; Experiment 3
  activity at 2000 µM: 120%
PfCRT^Dd2 [3]; Experiment 4
  activity at 2000 µM: 112%
PfCRT^Ecu1110 [4]; pH 5.5, read-out: PfCRT-mediated [3H]CQ transport, trans-stimulation (% PfCRTEcu1110 control), [test solute]i = 5 mM (intracellular), PfCRTEcu1110 oocytes, normalised to oocyte type control
  activity at 5000 µM: 126 ± 2.4%
PfCRT^Ecu1110 [4]; Experiment 1
  activity at 45000 µM: 47.7%
  activity at 2000 µM: 44.2%
PfCRT^Ecu1110 [4]; Experiment 2
  activity at 45000 µM: 47.6%
  activity at 2000 µM: 47.3%
PfCRT^Ecu1110 [4]; Experiment 3
  activity at 45000 µM: 50.8%
  activity at 2000 µM: 38.4%
PfCRT^Ecu1110 [4]; Experiment 4
  activity at 45000 µM: 49.2%
  activity at 2000 µM: 45.6%
PfCRT^Ecu1110 [4]; Experiment 5
  activity at 45000 µM: 51.1%
PfNT1; 45 mM VF-6 injected, 0 mM Na+ injection buffer, Experiment 1
  [3H]CQ transport, PfNT1 (% PfCRTDd2 control): 3.36 % PfCRTDd2 control
PfNT1; 45 mM VF-6 injected, 0 mM Na+ injection buffer, Experiment 2
  [3H]CQ transport, PfNT1 (% PfCRTDd2 control): 3.47 % PfCRTDd2 control
PfNT1; 45 mM VF-6 injected, 0 mM Na+ injection buffer, Experiment 3
  [3H]CQ transport, PfNT1 (% PfCRTDd2 control): 3.88 % PfCRTDd2 control
PfNT1; 45 mM VF-6 injected, 0 mM Na+ injection buffer, Experiment 4
  [3H]CQ transport, PfNT1 (% PfCRTDd2 control): 3.57 % PfCRTDd2 control
PfNT1; 45 mM VF-6 injected, 0 mM Na+ injection buffer, Experiment 5
  [3H]CQ transport, PfNT1 (% PfCRTDd2 control): 3.69 % PfCRTDd2 control
PfNT1; 45 mM VF-6 injected, 96 mM Na+ injection buffer, Experiment 1
  [3H]CQ transport, PfNT1 (% PfCRTDd2 control): 3.72 % PfCRTDd2 control
PfNT1; 45 mM VF-6 injected, 96 mM Na+ injection buffer, Experiment 2
  [3H]CQ transport, PfNT1 (% PfCRTDd2 control): 3.21 % PfCRTDd2 control
PfNT1; 45 mM VF-6 injected, 96 mM Na+ injection buffer, Experiment 3
  [3H]CQ transport, PfNT1 (% PfCRTDd2 control): 3.67 % PfCRTDd2 control
PfNT1; 45 mM VF-6 injected, 96 mM Na+ injection buffer, Experiment 4
  [3H]CQ transport, PfNT1 (% PfCRTDd2 control): 3.45 % PfCRTDd2 control
PfNT1; 45 mM VF-6 injected, 96 mM Na+ injection buffer, Experiment 5
  [3H]CQ transport, PfNT1 (% PfCRTDd2 control): 3.27 % PfCRTDd2 control
PfNT1; Experiment 1
  activity at 2000 µM: 2.65%
PfNT1; Experiment 2
  activity at 2000 µM: 2.51%
PfNT1; Experiment 3
  activity at 2000 µM: 2.61%
PfNT1; Experiment 4
  activity at 2000 µM: 2.73%
PfNT1; trans-stimulation, solute 45 mM injected (estimated intracellular), Experiment 1
  [3H]CQ transport, PfNT1 (% PfCRTDd2 control): 2.65 % PfCRTDd2 control
PfNT1; trans-stimulation, solute 45 mM injected (estimated intracellular), Experiment 2
  [3H]CQ transport, PfNT1 (% PfCRTDd2 control): 2.51 % PfCRTDd2 control
PfNT1; trans-stimulation, solute 45 mM injected (estimated intracellular), Experiment 3
  [3H]CQ transport, PfNT1 (% PfCRTDd2 control): 2.61 % PfCRTDd2 control
PfNT1; trans-stimulation, solute 45 mM injected (estimated intracellular), Experiment 4
  [3H]CQ transport, PfNT1 (% PfCRTDd2 control): 2.73 % PfCRTDd2 control
